According to paper PMC9889419 (Pharmacological Reports, 2022):
Read-outs that look alike come from different tables or passages of the source.

Columns and labels:
[1] = test system: mice; test: Rotarod test (neurotoxicity); format: in vivo; details: mice, ip, […];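 further: in vivo neurotoxicity screen run within the NIH Epilepsy Therapy Screening Program (ETSP, formerly Anticonvulsant Screening Program)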
[2] = test system: organotypic hippocampal slice cultures; test: Neuroprotection primary screen, excitotoxin NMDA; format: cell-based; details: NMDA 10 µM; 10 and 100 µM compound
Text: Gompound 1 : ADD Number: ItSot+ Batct: lE- Date Started:
Compound 2 : ADD Number: Froso Batct: le Date Completed i l|26-M ar -20 1 O […]
Excitotoxin: lNmoa lnsult Duration: la Uouo Solvent:
Primary Screen Results: ffi […]
Al lruuoa rolrr,| A2lr'rrr,tOa r Olrrr,t * --.- A3 lr'rnroa r oprvr + lsaoot+ t oplrl+aesogo iopM
BZ lr.rrr,ron ropr,t , -_-_-- 83 lluoa topt',r * jffi 1 4 t oopM.€sroso 1 oolrM la+eota tooptu*aasoeo roffi […]
The 'Primary screen Experiment" is a qualitative assessment of the ability of a compound to prevent excrtotoxic cell death. organotypic hippocampal slice cultures are treated *ltn r.i-."iivr-o-"spartate (NMDA) or kainic acad (KA) to induce neuronal cell death' Propidium iodide (Pl), a membrane-imper.eant cornpouna, is included in all wells of the culture plate.
Dying cells have compromised *]lT^"Toj*::, ttr. er rnJy oin "" into the cell, intercatate with DNA and fluoresce. Thus, the intensity of the Pl fluorescence is proportional to the amount of cell death in lhe individual itices. ttippocampat slice cullures are treated with the excitotoxin alone, or *i er. inoi"ui"o above, with the excitotoxin and either one -qf]bar-a Investigalional compounds at the concentrations indicated. lf neuroprotectron occurs as a consequence of the added […]
(§1) been treated with the excitotoxin alone.
(§2) (1 picture or pasted object on this page, not shown here)

[3] = test system: mice; test: iv pentylenetetrazole (PTZ) seizure threshold test; details: compound ip
Description: They were also evaluated in the iv pentylenetetrazole (PTZ) test.
Data are expressed as the mean PTZ dose ± SEM for n = 10 that induced clonus or twitch in mice exposed to a particular dose of the test compound

[4] = test system: rats; test: Acute toxicity (ETSP screening); format: in vivo; details: ip, 0.5 h
[5] = test system: rats; format: in vivo; details: ip
[6] = test system: mice; test: Subcutaneous pentylenetetrazole seizure test (ScPTZ, SCMET); format: in vivo; details: mice, ip, […]
Description: (§3) The assays were carried out within the Epilepsy Therapy Screening Program (ETSP, previously known as the Anticonvulsant Screening Program, ASP), Epilepsy Branch, National Institute of Neurological and Communicative Disorders and Stroke, National Institutes of Health in Rockville, MD, USA [23].

[7] = test system: rats; details: ip
Description: as §3

[8] = test system: rats; test: Rotarod / TOX (neurotoxicity); details: rats, ip
[9] = test system: rats; test: Maximal electroshock seizure (MES) test; format: in vivo
[10] = test system: organotypic hippocampal slice cultures; test: Neuroprotection primary screen, excitotoxin kainic acid; format: cell-based; details: kainic acid 20 µM; 10 and 100 µM compound
Description: Compound 2 : ADD t{umber, b890s0 Batch: lB- Date Compteted. Ect\,t""201 0 […]
Excilotoxin: llGinic ncia Insult Duration: l+ Hours Solvent: […]
Ai lxn zopr.,r aZ lxa zopr,r Ae lre zoprta
Bz lr<n zopn er ]ra zopr',t l:+aot a r ooprt/|*aa9o8o l oopM lgaeota t oot,tr,t*gB9o8o t oopM […]
The "Primary screen Experiment" is a qualitative assessment of the ability of a compound to prevent excitotoxic cell dearh. organotypic hippocampal slice clltures are treated with N-methyl-D-aipartate lNuoa; o; kainic acid (KA) to induce neuronal cell death. Propidium iodide (Pl), a membrane-impermeant compound, is included in all welts of the culture plate.
Dying cells have compromised cell membranes, thus Pl may diffuse into the cell, intercalate with DNA and ftuoresce. Thus, the intensity of the Pl fluorescence is proportional to the amount of cell death in the individual slices. Hippocampal slice cultures are treated with the excitotoxin alone, or where indicated above, with the excitotoxin and either one eltu/o investigational compounds at the concentrations indicated. lf neuroprotection occurs as a consequence of the added […]
as §1, §2

[11] = test system: mice; details: mice, ip, […]
Description: as §3
The obtained compounds were screened for antiseizure activity and neurotoxicity in vivo within the Epilepsy Therapy Screening Program (ETSP, previously known as the Anticonvulsant Screening Program, ASP), Epilepsy Branch, National Institute of Neurological and Communicative Disorders and Stroke, National Institutes of Health in Rockville, MD, USA [23].

[12] = test system: rats; format: in vivo; details: ip; remark: listed apart in the source
[13] = test system: mice; test: Formalin test (ETSP, area under the curve); format: in vivo; details: 20.0 mg/kg, ip
[14] = test system: mice; test: 6 Hz test; format: in vivo; details: 32 mA, mice, ip
Description: The 6 Hz model test was carried out according to the protocol originally described by Brown et al. [54] and more recently by Barton et al. [55] and Kamiński et al. [47] and is a model of pharmacoresistant epilepsy [56].

SMILES: CC[C@H](CO)NCCOc1c(C)cccc1Cl [Compound 5, R-(-)-2-((2-(2-chloro-6-methylphenoxy)ethyl)amino)butan-1-ol]
- Rotarod TD50 [1]: 59.80 (43.80–74.20) mg/kg
- Test Result (neuroprotection) [2]: No Neuroprotection
- influence on seizure threshold [3]: effect was not shown
- Acute toxicity: minimal motor impairment at [4]: 50 mg/kg
- Hippocampal kindling TPE [5]: 0.75 h
- Hippocampal kindling seizure score by Racine (0–5), Rat1 ([5]; at 30 mg/kg): 4
- Hippocampal kindling seizure score by Racine (0–5), Rat2 ([5]; at 30 mg/kg): 0
- SCMET ED50 [6]: > 70 mg/kg
- LTG-resistant amygdala seizures: rats with toxicity ([7]; 30 mg/kg): 3/4
- LTG-resistant amygdala seizures: seizure score by Racine (0–5) ([7]; 30 mg/kg): 3.5
- LTG-resistant amygdala seizures: rats with toxicity ([7]; 50 mg/kg): 5/5
- LTG-resistant amygdala seizures: seizure score by Racine (0–5) ([7]; 50 mg/kg): 2.2
- Rotarod TPE [8]: 0.25 h
- Rotarod TD50 ([8]; […]): > 30 mg/kg
- MES PI ([9]; ip): > 9.12
- MES TPE ([9]; ip): 0.25 h
- MES ED50 ([9]; ip, […]): 4.65 (2.94–6.88) mg/kg
- MES TPE ([9]; po): 0.5 h
- Test Result (neuroprotection) [10]: No Neuroprotection
- MES ED50 [11]: 18.20 (16.60–20.00) mg/kg
- Pilocarpine-induced status epilepticus prevention: active at [12]: 50 mg/kg
- Prot./Tested ([12]; 25 mg/kg, 0 h post first Stage III seizure): 2/8
- Pilocarpine test: rats died ([12]; at 100 mg/kg, […]): 2/2
- Area under the curve (I phase) [13]: 155.1 ± 44.2
- Area under the curve (II phase) [13]: 496.7 ± 164.7
- Area under the curve, % of control (I phase) [13]: 78.7; t14 = 1.3050%
- Area under the curve, % of control (II phase) [13]: 105.6; t14 = 0.3579%
- Area under the curve (II phase) ([13]; listed as 354009): 496.7
- Area under the curve, % of control (I phase) ([13]; listed as 354009): 78.68%
- Area under the curve, % of control (II phase) ([13]; listed as 354009): 105.6%
- 6 Hz ED50 ([14]; […]): 33.1 (29–37.8) mg/kg
- 6 Hz TPE [14]: 0.25 h
